Reference: PMC4356558, “Prediction of Chemical Respiratory Sensitizers Using GARD, a Novel In Vitro Assay Based on a Genomic Biomarker Signature” (PLoS ONE, 2015)
In brackets after ≈: the same amount, converted by molar mass. Like-named read-outs stand apart in the source and are kept apart here.

How the values were obtained:
[1] = system: GRPS genomic biomarker signature (389 transcripts) in MUTZ-3 cells; test: GARD assay with GARD Respiratory Prediction Signature (GRPS), SVM classification of respiratory sensitizers
Experimental: (§1) The human acute myelomonocytic leukemia cell line MUTZ-3[68, 69] was obtained from Leibniz-Institut DSMZ-Deutsche Sammlung von Mikroorganismen und Zellkulturen (DSMZ, Braunschweig, Germany). Maintenance of cells, chemical stimulation of MUTZ-3 and all subsequent isolation of mRNA and preparation of cDNA were performed as previously described. In short, a phenotypic control of MUTZ-3 was performed using flow cytometry prior to chemical stimulation to ensure cells were in an immature state. The following FITC-conjugated mouse monoclonal antibodies (mAbs) were used: CD1a (DakoCytomation, Glostrup, Denmark), CD34, CD86, HLA-DR, IgG1 (BD Biosciences, Franklin Lakes, NJ). The following PE-conjugated mouse monoclonal antibodies were used: CD14 (DakoCytomation), CD54, CD80, IgG1 (BD Biosciences). Cell viability was determined using Propidium Iodide (BD Biosciences) staining. Samples were run on FACSCanto II instrument. Data was acquired using FACS Diva software (BD Biosciences) and analyzed using FCS Express V4 (De Novo Software, Los Angeles, CA). Gating was performed to exclude cell debris and non-viable cells based on forward- and side-scattering properties and quadrants established using isotype-controls. During chemical exposure, cells were seeded at 200.000 cells/ml in 24-well plates and exposed to chemical compound at the GARD input concentration. Stimulated cells were harvested after 24h incubation at 37 °C, 5% CO2 and RNA was isolated with TRIzol reagent (Life Technologies, Carlsbad, CA) using standardized protocols provided by the manufacturer. In parallel, a control of the maturity state of the cells was performed by flow cytometric analysis of CD86. Preparation of cDNA and hybridization, washing and scanning of the Human Gene 1.0 ST Arrays (Affymetrix, Santa Clara, CA, USA) was performed, according to standardized protocols provided by the manufacturer (Affymetrix).
Gene expression data obtained from the Human Gene 1.0 ST Arrays were normalized using the Single-Channel array normalization (SCAN) algorithm, and potential batch effects between different set of experiments were adjusted using the ComBat empirical bayes method. Normalizations and batch adjustments were performed in R statistical software using the open software Bioconductor v2.14 [73] with the additional software packages SCAN.UPC [70] and sva. Normalized data was imported into Qlucore Omics Explorer 3.0 (Qlucore AB, Lund, Sweden) and visualized using Principal Component Analysis (PCA). Predictors were selected from a one-way ANOVA p-value filtration, using false discovery rate (FDR) to adjust for multiple hypothesis testing, comparing respiratory sensitizers and non-respiratory sensitizers. […] The Backward Elimination algorithm was modified to minimize the Kullback-Leibler error [53] rather than maximizing the Area Under the Receiver Operating Characteristic (AUC ROC), in order to enable signature optimization in cases where the AUC ROC reaches 1.0. […] The script for Backwards Elimination was programmed in R, with the additional package e1071 [78]. The method by which the predictive genomic biomarker signature was established was validated using cross-validation based on Support Vector Machines (SVM), based on a linear kernel, as described previously. In short, the training dataset was randomly divided into a new cross-validation training dataset comprising 70% of the stimulations, and a cross-validation test dataset comprising 30% of the stimulations. In addition, care was taken to maintain the same proportion between respiratory sensitizers and non-respiratory sensitizers as in the complete training dataset. A new predictive genomic biomarker signature was identified from the cross-validation training dataset using one-way ANOVA p-value filtration as described above.

MUTZ-3 cells = test: Chemical cytotoxicity, concentration yielding 90% relative viability (Rv90), propidium iodide staining
Description: A panel of 32 reference chemicals comprising a selection of 10 well characterized respiratory sensitizers and 22 non-respiratory sensitizers, collectively termed the training dataset, were used for cell stimulations in order to establish the predictive genomic biomarker signature. […] Additionally, a panel of 25 chemicals, including 6 respiratory sensitizers and 19 non-respiratory sensitizers, collectively termed the independent test dataset, were used for cell stimulations in order to form an independent testset for validation of the identified predictive genomic biomarker signature. The […] comprised both control chemicals, included during the training of the model, as well as chemicals previously unseen during training of the model. […] All chemicals were purchased from Sigma-Aldrich (St. Louis, MO, USA). Chemicals were dissolved and diluted into GARD input concentration in either water or DMSO prior to stimulation of cells. For chemicals dissolved in DMSO, the in-well concentration of DMSO was 0.1%. Monitoring of chemical cytotoxicity and establishment of GARD input concentration for each chemical compound was performed as previously described. […] Toxic compounds were used at a concentration yielding 90% relative viability (Rv90). The criterion that was first met determined the GARD input concentration for each compound.
as §1

[2] = system: CD86 expression of MUTZ-3 cells; test: CD86 cell surface expression of MUTZ-3 cells following chemical stimulation, flow cytometry; type: cell-based, human; conditions: 24 h stimulation at GARD input concentration; students t-test, p<0.05
[3] = Max solubility of chemicals in cell media (establishment of GARD input concentration); conditions: for solubility: aqueous buffer, kinetic from dmso stock; for Max solubility: dissolved in vehicle (water or DMSO)
[4] = replicate stimulation 1, 24 h at GARD input concentration, independent test dataset, > 0 = respiratory sensitizer
[5] = replicate stimulation 2, 24 h at GARD input concentration, independent test dataset, > 0 = respiratory sensitizer
[6] = replicate stimulation 3, 24 h at GARD input concentration, independent test dataset, > 0 = respiratory sensitizer
[7] = respiratory sensitizer if any of replicate stimulations has SVM decision value > 0
[8] = concentration yielding 90% relative viability, MUTZ-3, training dataset
[9] = reference compounds of the training dataset

Row | SMILES | SVM decision value 1 [1, 4] | SVM decision value 2 [1, 5] | SVM decision value 3 [1, 6] | Classification, Pos if 1 sample > 0 [1, 7] | other results
1 | O=C(O)c1ccc(O)cc1 [p-hydroxybenzoic acid] | −0.81 | −0.56 | −1.09 | Non-sensitizer | –
2 | OCC(O)CO [Glycerol] | −1.05 | −1.11 | −0.77 | Non-sensitizer | –
3 | O=CCCCC=O [Glutaraldehyde] | – | – | – | – | Rv90 (MUTZ-3 cells; [8]): 10 µM; Up-regulation of CD86 in comparison to unstimulated cells [2]: statistically significant
4 | CCCCCCCC(=O)O [Octanoic acid] | −0.65 | −0.79 | −1.22 | Non-sensitizer | –
5 | Cc1ccc(S(=O)(=O)NCl)cc1 [Chloramine T] | 0.52 | 0.59 | – | Sensitizer | –
6 | Nc1ccccc1O [2-Aminophenol] | – | – | – | – | Rv90 (MUTZ-3 cells; human): 100 µM; Up-regulation of CD86 in comparison to unstimulated cells [2]: up-regulation of CD86 was also observed
7 | C=CC(=O)OCCO [2-Hydroxyethyl acrylate] | – | – | – | – | Rv90 (MUTZ-3 cells; [8]): 100 µM
8 | Oc1ccccc1 [Phenol] | – | – | – | – | Classification, Pos if 1 sample > 0 [1]: Non-sensitizer; SVM decision value 1 ([1]; human): −1.04; SVM decision value 2 ([1]; human): −0.38; SVM decision value 3 ([1]; human): −0.95
9 | Nc1ccc(N)cc1 [p-phenylenediamine] | −1.38 | −1.19 | −1.80 | Non-sensitizer | Rv90 (MUTZ-3 cells): 75 µM
10 | O=CC=O [Glyoxal] | −1.02 | −0.69 | −0.56 | Non-sensitizer | Rv90 (MUTZ-3 cells): 300 µM
11 | CCCCO [1-Butanol] | – | – | – | – | Classification, Pos if 1 sample > 0 [1]: Sensitizer; SVM decision value 1 [1]: −0.32; SVM decision value 2 [1]: 0.12
12 | C=O [Formaldehyde] | – | – | – | – | Rv90 (MUTZ-3 cells): 80 µM
13 | OCC=Cc1ccccc1 [Cinnamyl alcohol] | −0.57 | – | −1.26 | Non-sensitizer | solubility [3]: 500 µM (≈ 67.1 µg/mL)
14 | Clc1ccccc1 [Chlorobenzene] | −1.03 | −0.76 | −1.15 | Sensitizer | SVM decision value 4 ([1]; replicate stimulation 4, 24 h at GARD input concentration, independent test dataset, > 0 = respiratory sensitizer): 0.24; SVM decision value 5 ([1]; replicate stimulation 5, 24 h at GARD input concentration, independent test dataset, > 0 = respiratory sensitizer): 0.06
15 | [Cl][Pt-2]([Cl])([Cl])([Cl])([Cl])[Cl].[NH4+].[NH4+] [Ammonium hexachloroplatinate] | – | – | – | – | Up-regulation of CD86 in comparison to unstimulated cells [2]: statistically significant; Max solubility [3, 9]: 35 µM
16 | O=Cc1ccccc1 [Benzaldehyde] | −0.79 | −0.87 | −0.70 | Non-sensitizer | –
17 | O=C(O)c1ccc2c(c1)C(=O)OC2=O [Trimellitic anhydride] | – | – | – | – | solubility [3]: 150 µM (≈ 28.8 µg/mL)
18 | O=C=Nc1ccc(Cc2ccc(N=C=O)cc2)cc1 [Methylene diphenol diisocyanate] | – | – | – | – | Max solubility [3, 9]: 50 µM
19 | O=[N+]([O-])c1ccc(Cl)c([N+](=O)[O-])c1 [2,4-dinitrochlorobenzene] | −1.66 | −1.18 | −1.90 | Non-sensitizer | Rv90 (MUTZ-3 cells; human): 4 µM
20 | CCOC(=O)c1ccccc1C(=O)OCC [Diethyl phthalate] | −1.37 | −0.96 | −1.22 | Non-sensitizer | –
21 | Sc1nc2ccccc2s1 [2-mercaptobenzothiazole] | −0.44 | −0.43 | −0.57 | – | –
22 | CC(O)C(=O)O (stereo not shown) [Lactic acid] | −1.20 | −0.81 | −0.89 | – | –
23 | O=C1OC(=O)c2ccccc21 [Phtalic Anhydride] | 0.20 | −0.12 | – | Sensitizer | Max solubility ([3]; chemicals of the independent test dataset): 200 µM; Max solubility [3, 9]: 200 µM
24 | O=C(O)c1ccccc1O [Salicylic acid] | −0.73 | −1.08 | −1.13 | Non-sensitizer | –
25 | Oc1cccc(O)c1 [Resorcinol] | −1.01 | −0.99 | −1.40 | Non-sensitizer | –
26 | C=CCc1ccc(O)c(OC)c1 [Eugenol] | −1.67 | −1.53 | −1.51 | Non-sensitizer | Rv90 (MUTZ-3 cells; concentration yielding 90% relative viability, MUTZ-3, independent test dataset): 300 µM
27 | CCCCCCCCCCCCOS(=O)(=O)[O-].[Na+] [Sodium dodecyl sulphate] | – | – | – | – | Rv90 (MUTZ-3 cells): 200 µM; Classification, Pos if 1 sample > 0 [1]: Non-sensitizer; SVM decision value 1 [1]: −1.49; SVM decision value 2 [1]: −0.80; SVM decision value 3 [1]: −1.30
